SMILES strings stand for the structures.

In the assay the test system is beet armyworm (Spodoptera exigua). Briefly: Insecticidal test for beet armyworm, treated diet surface. The class given is in vivo. The note with it: 100 μg/cm^2 on diet surface, first instar larvae, 32 insects per treatment, observations 24, 48 and 96 hours. On the procedure: The compounds identified in Table 8 were prepared according to the previous methods and were tested against beet armyworm and corn earworm as follows:
Insecticidal Test for Beet Armyworm (Spodoptera exigua).
To prepare the test solution, the test compound was Formulated at 3499 ppm in solution as 5 mg compound/1.429 mL of 9 parts acetone: 1 part deionized H2O and vortexed to homogenize. 50 μL of the 3499 ppm (equivalent to 100 μg/cm^2 dose on diet surface area) test solution was pipetted upon the surface of 1 mL of solidified cool Southland Products Incorporated Beet Armyworm Diet (201 Stuart Island Road Lake Village, Ark. 71653) using an Eppendorf Repeater Plus with a 1 mL pipette tip. All pipetting of treatments was done in a Labconco Hood. Thirty minutes were allowed for the acetone to evaporate leaving a dose of 100 μg/cm^2 on the surface of the artificial diet. Two 24 hour old first instar Beet Armyworm (Spodoptera Exigua) larvae were placed in each well of the 128 well Bio-BA 128 Bioassay trays (CD International, Pitman, N.J., 08071, USA) using a #0 fine camel hair paint brush. Bioassay trays were sectioned into treatment groups of 8 with 16 replicates per treatment group (32 insects per treatment). Trays containing the treated diet and larvae were covered with a Bio-CV-16 cover (CD International, Pitman, N.J., 08071, USA) and then placed on a rack under florescent lights at 27° C., 20% relative humidity (RH) in the room, and 16 hr light: 8 hr dark for 96 hours. Observations were made 24, 48 and 96 hours after treatment and infestation. The number of insects dead were counted out of the 32 insects total per treatment and the results are given in a table as a percent mortality at a dose of 100 μg/cm^2. When finished, the tray was moved to the −5° C. freezer and left for 24 hr to insure mortality of the remaining S. exigua. After 24 hours, dispose of entire tray into waste bin.
Keys to the table: Mortality refers to activity against beet army worm (Spodoptera exigua) as defined above at the concentration of 100 μg/cm^2 (A=76-100% mortality, B=51-75% mortality, C=26-50% mortality and D=0-25% mortality).
A word on the mortality: it is the share of the test organisms that died. A higher mortality goes with fewer survivors. For the molecule `Fc1cccc(Cl)c1-c1nc(NCC2CCOC2)nc(NN=Cc2ccc(OC(F)(F)F)cc2)n1` (centres unmarked) [Example 26, 4-(2-chloro-6-fluorophenyl)-N-((tetrahydrofuran-3-yl)methyl)-6-(2-(4-(trifluoromethoxy)benzylidene)hydrazinyl)-1,3,5-triazin-2-amine], the mortality at 100 µg/cm2 lay in the range of 0 to 25%.

The molecule `Fc1cccc(F)c1-c1nc(NN=Cc2ccc(OC(F)(F)F)cc2)nc(Nc2ccc(Cl)cc2)n1` [Example 1, N-(4-chlorophenyl)-4-(2,6-difluorophenyl)-6-(2-(4-(trifluoromethoxy)benzylidene)hydrazinyl)-1,3,5-triazin-2-amine] had a mortality at 100 µg/cm2 of 76 to 100%. Under `Cc1ccc(C=NNc2nc(Nc3ccc(Cl)nc3)nc(-c3c(F)cccc3Cl)n2)cc1` [Example 53, 4-(2-chloro-6-fluorophenyl)-N-(6-chloropyridin-3-yl)-6-(2-(4-methylbenzylidene)hydrazinyl)-1,3,5-triazin-2-amine] stands 76 to 100%; under `N#Cc1ccc(C=NNc2nc(Nc3ccc(Cl)cc3)nc(-c3c(F)cccc3Cl)n2)cc1` [Example 18], 76 to 100%.

In turn, `Fc1cccc(F)c1-c1nc(NN=Cc2ccc(OC(F)(F)C(F)F)cc2)nc(Nc2ccc(Cl)cc2)n1` [Example 10, N-(4-chlorophenyl)-4-(2,6-difluorophenyl)-6-(2-(4-(1,1,2,2-tetrafluoroethoxy)benzylidene)hydrazinyl)-1,3,5-triazin-2-amine] returned a mortality at 100 µg/cm2 of 76 to 100%. Then `Fc1cccc(Cl)c1-c1nc(NN=Cc2ccc(OC(F)(F)F)cc2)nc(Nc2ccnc(Cl)c2)n1` [Example 40, 4-(2-chloro-6-fluorophenyl)-N-(2-chloropyridin-4-yl)-6-(2-(4-(trifluoromethoxy)benzylidene)hydrazinyl)-1,3,5-triazin-2-amine], with 26 to 50%. Then `Fc1cccc(Cl)c1-c1nc(NN=Cc2ccc(OC(F)(F)C(F)F)cc2)nc(Nc2ccc(Cl)cc2)n1` [Example 11, 4-(2-chloro-6-fluorophenyl)-N-(4-chlorophenyl)-6-(2-(4-(1,1,2,2-tetrafluoroethoxy)benzylidene)hydrazinyl)-1,3,5-triazin-2-amine], with 76 to 100%; and `Fc1cc(C=NNc2nc(Nc3ccc(Cl)nc3)nc(-c3c(F)cccc3Cl)n2)ccc1C(F)(F)F` [Example 55, 4-(2-chloro-6-fluorophenyl)-N-(6-chloropyridin-3-yl)-6-(2-(3-fluoro-4-(trifluoromethyl)benzylidene)hydrazinyl)-1,3,5-triazin-2-amine], with 76 to 100%; and `FC(F)(F)Oc1ccc(C=NNc2nc(Nc3ccc(Cl)cc3)nc(-c3c(Cl)cc(Cl)cc3Cl)n2)cc1` [Example 27, N-(4-chlorophenyl)-4-(2,4,6-trichlorophenyl)-6-(2-(4-(trifluoromethoxy)benzylidene)hydrazinyl)-1,3,5-triazin-2-amine], with 0 to 25%.

Take `Cc1ccc(Nc2nc(NN=Cc3ccc(OC(F)(F)F)cc3)nc(-c3c(F)cccc3Cl)n2)cc1` [Example 23, 4-(2-chloro-6-fluorophenyl)-N-(p-tolyl)-6-(2-(4-(trifluoromethoxy)benzylidene)hydrazinyl)-1,3,5-triazin-2-amine]: the mortality at 100 µg/cm2 is 76 to 100%. Then `Cc1ccc(-c2nc(NN=Cc3ccc(OC(F)(F)F)cc3)nc(Nc3ccc(Cl)cc3)n2)cc1` [Example 33, N-(4-chlorophenyl)-4-(p-tolyl)-6-(2-(4-(trifluoromethoxy)benzylidene)hydrazinyl)-1,3,5-triazin-2-amine], with 0 to 25%; and `Fc1cccc(Cl)c1-c1nc(NN=Cc2ccc(OC(F)(F)F)cc2)nc(Nc2ccccc2Cl)n1` [Example 41, 4-(2-chloro-6-fluorophenyl)-N-(2-chlorophenyl)-6-(2-(4-(trifluoromethoxy)benzylidene)hydrazinyl)-1,3,5-triazin-2-amine], with 76 to 100%.

`CNc1nc(NN=Cc2ccc(OC(F)(F)F)cc2)nc(-c2c(F)cccc2Cl)n1` [Example 43, 4-(2-chloro-6-fluorophenyl)-N-methyl-6-(2-(4-(trifluoromethoxy)benzylidene)hydrazinyl)-1,3,5-triazin-2-amine] gave a mortality at 100 µg/cm2 of 76 to 100%. `Fc1cccc(Cl)c1-c1nc(NCc2ccc(Cl)cc2)nc(NN=Cc2ccc(OC(F)(F)F)cc2)n1` [Example 60, 4-(2-chloro-6-fluorophenyl)-N-(4-chlorobenzyl)-6-(2-(4-(trifluoromethoxy)benzylidene)hydrazinyl)-1,3,5-triazin-2-amine]: the mortality at 100 µg/cm2 is 76 to 100%.

As to `Fc1cccc(Cl)c1-c1nc(NN=Cc2ccc(OC(F)(F)F)cc2)nc(Nc2ccc(Cl)c(Cl)c2)n1` [Example 38, 4-(2-chloro-6-fluorophenyl)-N-(3,4-dichlorophenyl)-6-(2-(4-(trifluoromethoxy)benzylidene)hydrazinyl)-1,3,5-triazin-2-amine], the mortality at 100 µg/cm2 was in the range of 76 to 100%. Take `Fc1cccc(-c2nc(NN=Cc3ccc(OC(F)(F)F)cc3)nc(Nc3ccc(Cl)cc3)n2)c1` [Example 31, N-(4-chlorophenyl)-4-(3-fluorophenyl)-6-(2-(4-(trifluoromethoxy)benzylidene)hydrazinyl)-1,3,5-triazin-2-amine]: the mortality at 100 µg/cm2 lay within 51 to 75%. Then `Oc1ccc(C=NNc2nc(Nc3ccc(Cl)nc3)nc(-c3c(F)cccc3Cl)n2)cc1` [Example 50], with 0 to 25%. Molecule `Fc1cccc(Cl)c1-c1nc(NN=Cc2ccc(OC(F)(F)F)cc2)nc(Nc2ccc(Cl)cn2)n1` [Example 45, 4-(2-chloro-6-fluorophenyl)-N-(5-chloropyridin-2-yl)-6-(2-(4-(trifluoromethoxy)benzylidene)hydrazinyl)-1,3,5-triazin-2-amine] showed a mortality at 100 µg/cm2 of 26 to 50%. Then `CCc1ccc(C=NNc2nc(Nc3ccc(Cl)cc3)nc(-c3c(F)cccc3Cl)n2)cc1` [Example 17, 4-(2-chloro-6-fluorophenyl)-N-(4-chlorophenyl)-6-(2-(4-ethylbenzylidene)hydrazinyl)-1,3,5-triazin-2-amine], with 76 to 100%; and `FC(F)(F)Oc1ccc(C=NNc2nc(Nc3ccc(Cl)cc3)nc(-c3ccccc3)n2)cc1` [Example 2, N-(4-chlorophenyl)-4-phenyl-6-(2-(4-(trifluoromethoxy)benzylidene)hydrazinyl)-1,3,5-triazin-2-amine], with 76 to 100%. Under `Fc1cccc(F)c1-c1nc(NCc2ccc(Cl)nc2)nc(NN=Cc2ccc(OC(F)(F)F)cc2)n1` [Example 8, N-((6-chloropyridin-3-yl)methyl)-4-(2,6-difluorophenyl)-6-(2-(4-(trifluoromethoxy)benzylidene)hydrazinyl)-1,3,5-triazin-2-amine] stands 76 to 100%.

`FC(F)(F)Oc1ccc(C=NNc2cc(-c3ccccc3)nc(Nc3ccc(Cl)cc3)n2)cc1` [Example 58, N-(4-chlorophenyl)-4-phenyl-6-(2-(4-(trifluoromethoxy)benzylidene)hydrazinyl)pyrimidin-2-amine] returned a mortality at 100 µg/cm2 of 76 to 100%. On to `Fc1cccc(Cl)c1-c1nc(NN=CCc2ccccc2)nc(Nc2ccc(Cl)cc2)n1` [Example 20, 4-(2-chloro-6-fluorophenyl)-N-(4-chlorophenyl)-6-(2-(2-phenylethylidene)hydrazinyl)-1,3,5-triazin-2-amine], for which the mortality at 100 µg/cm2 was 76 to 100%.

Values taken from patent US8785630B2, “Insecticidal triazines and pyrimidines” (Vestaron Corporation, priority 2011, dated 2014).
